# Measurements taken from patent US20240383856A1 (Zedira GmbH, priority 2021, published 2024).
# Columns and labels:
# [1] = Caco-2 permeability assay (CacoReady kit); type: in vitro ADME; settings: human, Caco-2, Caco-2 barrier, CacoReady kit; above 1×10^−6 cm/s classified as permeable
# Experimental: Permeability coefficients (Papp values) were obtained from Caco-2 barrier studies predicting oral/intestinal bioavailability of the tested compounds. The assays were performed by using CacoReady™ ready-to-use kits from ReadyCell according to the manufacturers protocol.
# [2] = molecular target: T1, recombinant human transglutaminase 2 (Homo sapiens, UniProt P21980); assay: Transglutaminase assay (DCC-assay): incorporation of dansylcadaverine into dimethylcasein; type: biochemical; settings: recombinant human TG2 10 nM; dansylcadaverine incorporation into dimethylcasein; read-out: IC50 TG2
# T1 construct: purchased Zedira T022
# T1 sequence (P21980 1-687): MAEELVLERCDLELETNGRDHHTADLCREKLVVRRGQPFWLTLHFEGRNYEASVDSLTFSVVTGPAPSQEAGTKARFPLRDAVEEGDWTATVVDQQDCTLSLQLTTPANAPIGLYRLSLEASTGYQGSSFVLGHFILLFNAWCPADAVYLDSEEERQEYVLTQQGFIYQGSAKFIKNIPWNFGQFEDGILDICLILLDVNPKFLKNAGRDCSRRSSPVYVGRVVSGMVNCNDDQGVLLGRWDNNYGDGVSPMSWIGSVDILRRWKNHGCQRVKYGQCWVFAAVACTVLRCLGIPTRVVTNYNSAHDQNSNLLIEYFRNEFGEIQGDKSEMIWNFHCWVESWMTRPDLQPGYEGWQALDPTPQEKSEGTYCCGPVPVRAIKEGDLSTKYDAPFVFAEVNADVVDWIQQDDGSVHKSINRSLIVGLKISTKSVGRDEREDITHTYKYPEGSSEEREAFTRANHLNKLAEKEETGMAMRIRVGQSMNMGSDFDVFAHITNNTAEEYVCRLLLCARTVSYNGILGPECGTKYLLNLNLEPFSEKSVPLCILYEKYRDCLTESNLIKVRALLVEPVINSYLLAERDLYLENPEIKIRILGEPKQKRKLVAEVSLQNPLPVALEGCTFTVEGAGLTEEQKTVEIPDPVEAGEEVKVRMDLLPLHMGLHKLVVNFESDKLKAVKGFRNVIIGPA
# Experimental: To illustrate the advantage of branched alkyl moieties over aromatic moieties, we refer to reference compounds Ref. 2 (ZED1227, U.S. Pat. No. 9,434,763 B2) and Ref. 3 (A8, ZED1047). Inhibition data were determined using the classical fluorescent transamidation assay (dansylcadaverine incorporation into methylated casein, DCC-assay) as described [Buchold, C.; Hils, M.; Gerlach, U.; Weber, J.; Pelzer, C.; Heil, A.; Aeschlimann, D.; Pasternack, R. Features of ZED1227: The First-In-Class Tissue Transglutaminase Inhibitor Undergoing Clinical Evaluation for the Treatment of Celiac Disease. Cells 2022, 11, 1667. https://doi.org/10.3390/cells11101667]. Casein is one of the best known high molecular weight (24 kDa) protein substrates for transglutaminases. Please note, the IC50 value of Ref. 3 (A8) published in U.S. Pat. No. 9,434,763 B2 cannot be compared to the present data, relying on a fluorogenic isopeptidase assay.
# To this extent, inhibition data were determined using the classical fluorescent transamidation assay (dansylcadaverine incorporation into methylated casein, DCC-assay) as described in Büchold et al. [Büchold, C.; Hils, M.; Gerlach, U.; Weber, J.; Pelzer, C.; Heil, A.; Aeschlimann, D.; Pasternack, R. Features of ZED1227: The First-In-Class Tissue Transglutaminase Inhibitor Undergoing Clinical Evaluation for the Treatment of Celiac Disease. Cells 2022, 11, 1667. https://doi.org/10.3390/cells11101667]. Casein is one of the best known high molecular weight (24 kDa) protein substrates for transglutaminases. Inhibition data of the inventive compounds was compared with inhibition of compounds disclosed in U.S. Pat. No. 9,434,763 B2, particularly, compound A8, which is denoted herein as Reference 3. It is noteworthy that the IC50 values of compounds A8 published in U.S. Pat. No. 9,434,763 B2 and E16 from U.S. Pat. No. 11,072,634 B2 cannot be compared to the present data, relying on a fluorogenic isopeptidase assay.
# For the determination of potency of inhibitors against tissue transglutaminase, the incorporation of dansylcadaverine into dimethylcasein (Zedira product T036, Lorand et al., Anal Biochem, 1971, 44:221-31) was measured using recombinant human transglutaminase 2 (Zedira Product T022).
# The tissue transglutaminase is diluted in buffer (50 mM Tris-HCl, 7.5 mM CaCl2), 150 mM NaCl, pH=7.4). The final concentration of TG2 in the assay is 10 nM.
# A 10 mM inhibitor stock solution is prepared in DMSO, and from this a serial 1:2-fold dilution series is prepared also in DMSO. Each of the initial dilutions is subsequently diluted 1:50-fold with buffer (50 mM Tris-HCl, 7.5 mM CaCl2), 150 mM NaCl, pH=7.4) to yield the final working dilutions containing 2% (v/v) DMSO.
# 15 μl of inhibitor working dilution are added per well of a 96 well microtiter plate. As control, 15 μl of a 2% (v/v) DMSO solution prepared using the buffer mentioned above are added per well.
# Immediately before starting the assay, 600 μl transglutaminase working solution are added to 11.4 ml assay buffer (50 mM Tris-HCl, 10 mM CaCl2), 10 mM glutathione, 2.5% glycerol, 16.7 µM dansylcadaverine, 4 uM N,N-dimethylcasein, 200 mM NaCl, pH=8.0). 285 μl of this reaction mix are added per well containing the inhibitor.
# Increase in fluorescence is measured using λex=330 nm and λem=500 nm at 37° C. for 30 min. A slope of the increase in fluorescence between 20 and 30 min is calculated for determination of the IC50 value (inhibitor concentration at which 50% of the initial activity is blocked).
# Analysis of enzymatic activity is performed by calculation of the slope of an increase in fluorescence intensity. IC50 values are calculated by plotting the enzymatic activity (as percentage from control containing 2% DMSO instead of inhibitor) against the inhibitor concentration. IC50 is defined as the inhibitor concentration blocking 50% of initial enzyme activity.
# [3] = logD by shake flask method (octanol / PBS pH 7.4, HPLC); type: physicochemical; settings: octanol / PBS pH 7.4, shake flask
# Experimental: In order to classify the inventive compounds according to their lipophilicity, LogD values (distribution coefficient) were determined by means of the well-established shake flask method, measuring the partition of a compound between an octanol and phosphate-buffered saline (PBS, pH 7.4) by HPLC.
# The LogD is pH dependent and is a “predictor” for in-vivo properties. LogD combines lipophilicity (intrinsic structural property of the molecule, logP) and ionizability (pKa). Compounds with a moderate lipophilicity (LogD values from 0 to 3) are usually advantaged for oral absorption, being in balance between solubility and permeability. However, sophisticated formulation of a compound might improve oral bioavailability for highly lipophilic compounds.
SMILES,Papp [1] [×10⁻⁶ cm/s],IC50 [2] [nM],logD [3]
"CNC(=O)C(=O)CC[C@H](NC(=O)c1csc(Br)c1)C(=O)Nc1cccn(CC(=O)NC2C3CC4CC(C3)CC2C4)c1=O (stereo partly drawn) [II-30, (S)-2-(5-bromothiophene-3-carboxamido)-N1-(1-(2-(2-adamantylamino)-2-oxoethyl)-2-oxo-1,2-dihydropyridin-3-yl)-N6-methyl-5-oxohexanediamide]",1 to 10,< 40,3 to 5
"CNC(=O)C(=O)CC[C@H](NC(=O)c1nc(Cl)sc1C)C(=O)Nc1cccn(CC(=O)NC2C3CC4CC(C3)CC2C4)c1=O (stereo partly drawn) [II-31, (S)-2-(2-chloro-5-methylthiazole-4-carboxamido)-N1-(1-(2-(2-adamantylamino)-2-oxoethyl)-2-oxo-1,2-dihydropyridin-3-yl)-N6-methyl-5-oxohexanediamide]",1 to 10,40 to 400,1 to 3
"CNC(=O)C(=O)CC[C@H](NC(=O)c1nc(Cl)sc1Cl)C(=O)Nc1cccn(CC(=O)NC2C3CC4CC(C3)CC2C4)c1=O (stereo partly drawn) [II-32, (S)-2-(2,5-dichlorothiazole-4-carboxamido)-N1-(1-(2-(2-adamantylamino)-2-oxoethyl)-2-oxo-1,2-dihydropyridin-3-yl)-N6-methyl-5-oxohexanediamide]",1 to 10,40 to 400,1 to 3
"CNC(=O)C(=O)CC[C@H](NC(=O)c1nc(Br)sc1Br)C(=O)Nc1cccn(CC(=O)NC2C3CC4CC(C3)CC2C4)c1=O (stereo partly drawn) [II-33, (S)-2-(2,5-dibromothiazole-4-carboxamido)-N1-(1-(2-(2-adamantylamino)-2-oxoethyl)-2-oxo-1,2-dihydropyridin-3-yl)-N6-methyl-5-oxohexanediamide]",> 10,40 to 400,1 to 3
"CNC(=O)C(=O)CC[C@H](NC(=O)c1nc(Br)sc1C)C(=O)Nc1cccn(CC(=O)NC2C3CC4CC(C3)CC2C4)c1=O (stereo partly drawn) [II-34, (S)-2-(2-bromo-5-methylthiazole-4-carboxamido)-N1-(1-(2-(2-adamantylamino)-2-oxoethyl)-2-oxo-1,2-dihydropyridin-3-yl)-N6-methyl-5-oxohexanediamide]",> 10,40 to 400,1 to 3
"CNC(=O)C(=O)CC[C@H](NC(=O)c1csc(Br)n1)C(=O)Nc1cccn(CC(=O)NC2C3CC4CC(C3)CC2C4)c1=O (stereo partly drawn) [II-35, (S)-2-(2-bromothiazole-4-carboxamido)-N1-(1-(2-(2-adamantylamino)-2-oxoethyl)-2-oxo-1,2-dihydropyridin-3-yl)-N6-methyl-5-oxohexanediamide]",1 to 10,40 to 400,1 to 3
"CNC(=O)C(=O)CC[C@H](NC(=O)c1nc(C)c(C)s1)C(=O)Nc1cccn(CC(=O)NC2C3CC4CC(C3)CC2C4)c1=O (stereo partly drawn) [II-38, (S)-2-(4,5-dimethylthiazole-2-carboxamido)-N1-(1-(2-(2-adamantylamino)-2-oxoethyl)-2-oxo-1,2-dihydropyridin-3-yl)-N6-methyl-5-oxohexanediamide]",1 to 10,400 to 2500,3 to 5
"CNC(=O)C(=O)CC[C@H](NC(=O)c1cc(Br)cs1)C(=O)Nc1cccn(CC(=O)NC2C3CC4CC(C3)CC2C4)c1=O (stereo partly drawn) [II-40, (S)-2-(4-bromothiophene-2-carboxamido)-N1-(1-(2-(2-adamantylamino)-2-oxoethyl)-2-oxo-1,2-dihydropyridin-3-yl)-N6-methyl-5-oxohexanediamide]",< 1,< 40,3 to 5
"CNC(=O)C(=O)CC[C@H](NC(=O)c1scc(Br)c1C)C(=O)Nc1cccn(CC(=O)NC2C3CC4CC(C3)CC2C4)c1=O (stereo partly drawn) [II-41, (S)-2-(4-bromo-3-methylthiophene-2-carboxamido)-N1-(1-(2-(2-adamantylamino)-2-oxoethyl)-2-oxo-1,2-dihydropyridin-3-yl)-N6-methyl-5-oxohexanediamide]",1 to 10,40 to 400,3 to 5

# More lines, now with the values ahead:
Papp [1] [×10⁻⁶ cm/s],IC50 [2] [nM],logD [3],SMILES
1 to 10,40 to 400,1 to 3,"CNC(=O)C(=O)CC[C@H](NC(=O)c1csc(Cl)n1)C(=O)Nc1cccn(CC(=O)NC2C3CC4CC(C3)CC2C4)c1=O (stereo partly drawn) [II-36, (S)-2-(2-chlorothiazole-4-carboxamido)-N1-(1-(2-(2-adamantylamino)-2-oxoethyl)-2-oxo-1,2-dihydropyridin-3-yl)-N6-methyl-5-oxohexanediamide]"
1 to 10,40 to 400,1 to 3,"CNC(=O)C(=O)CC[C@H](NC(=O)c1cc(C)oc1C)C(=O)Nc1cccn(CC(=O)NC2C3CC4CC(C3)CC2C4)c1=O (stereo partly drawn) [II-37, (S)-2-(2,5-dimethylfuran-3-carboxamido)-N1-(1-(2-(2-adamantylamino)-2-oxoethyl)-2-oxo-1,2-dihydropyridin-3-yl)-N6-methyl-5-oxohexanediamide]"
1 to 10,40 to 400,1 to 3,"CNC(=O)C(=O)CC[C@H](NC(=O)c1nc(Br)cs1)C(=O)Nc1cccn(CC(=O)NC2C3CC4CC(C3)CC2C4)c1=O (stereo partly drawn) [II-39, (S)-2-(4-bromothiazole-2-carboxamido)-N1-(1-(2-(2-adamantylamino)-2-oxoethyl)-2-oxo-1,2-dihydropyridin-3-yl)-N6-methyl-5-oxohexanediamide]"
1 to 10,40 to 400,1 to 3,"CNC(=O)C(=O)CC[C@H](NC(=O)c1sccc1Br)C(=O)Nc1cccn(CC(=O)NC2C3CC4CC(C3)CC2C4)c1=O (stereo partly drawn) [II-42, (S)-2-(3-bromothiophene-2-carboxamido)-N1-(1-(2-(2-adamantylamino)-2-oxoethyl)-2-oxo-1,2-dihydropyridin-3-yl)-N6-methyl-5-oxohexanediamide]"
